PubChem BioAssay AID248 (DTP/NCI, 2004)
Several values for one entry are separate records, joined by “and”; a condition that tells them apart may be missing. Equal values may be shown once. Inconclusive results and toxic doses are left out. No stated cut-off is given here; in the data, active means T/C of 150% or more; inactive means T/C below 125%.

System: L1210 leukemia ip in BDF1 mice, survival T/C
Assay: NCI In Vivo Anticancer Drug Screen. Data for tumor model L1210 Leukemia (intraperitoneal) in B6D2F1 (BDF1) mice
Conditions: endpoint: mean survival time, higher = longer survival
Summary of the method: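 In this screen, tumor-bearing mice given compound are compared to those given vehicle, and their survival values are reported as a treated-to-control quotient.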

[1] = dose: 100.0 mg/kg/injection, schedule: Q04DX003 (ip), vehicle: Klucel (hydroxypropylcellulose) (HPC)
[2] = dose: 200.0 mg/kg/injection, schedule: Q04DX003 (ip), vehicle: Klucel (hydroxypropylcellulose) (HPC)
[3] = dose: 100.0 mg/kg/injection, schedule: Q01DX009 (ip), vehicle: Klucel (hydroxypropylcellulose) (HPC)
[4] = dose: 200.0 mg/kg/injection, schedule: Q01DX009 (ip), vehicle: Klucel (hydroxypropylcellulose) (HPC)
[5] = dose: 400.0 mg/kg/injection, schedule: Q01DX009 (ip), vehicle: Klucel (hydroxypropylcellulose) (HPC)

Measured: T/C

CCn1cnc2c(=S)nc[nH]c21
active: dose: 120.0 mg/kg/injection, schedule: Q01DX009 (oral), vehicle: other 151 % of control | dose: 240.0 mg/kg/injection, schedule: Q## X016 (ip), vehicle: other 152 % of control | dose: 240.0 mg/kg/injection, schedule: Q## X024 (ip), vehicle: other 165 % of control | dose: 300.0 mg/kg/injection, schedule: Q## X003 (ip), vehicle: other 162 % of control | dose: 480.0 mg/kg/injection, schedule: Q## X008 (ip), vehicle: other 157 % of control | dose: 480.0 mg/kg/injection, schedule: Q## X016 (ip), vehicle: other 153 % of control
inactive: dose: 4.62 mg/kg/injection, schedule: Q01DX Z (ip), vehicle: carboxymethylcellulose (CMC) 98 % of control | dose: 7.5 mg/kg/injection, schedule: Q01DX005 (ip), vehicle: other 106 % of control | dose: 7.5 mg/kg/injection, schedule: Q01DX009 (ip), vehicle: other 102 % of control | dose: 7.5 mg/kg/injection, schedule: Q01DX009 (sc), vehicle: other 124 % of control | dose: 9.25 mg/kg/injection, schedule: Q01DX Z (ip), vehicle: carboxymethylcellulose (CMC) 108 % of control | dose: 9.25 mg/kg/injection, schedule: Q01DX Z (oral), vehicle: carboxymethylcellulose (CMC) 110 % of control | dose: 15.0 mg/kg/injection, schedule: Q01DX005 (ip), vehicle: other 102 % of control | dose: 15.0 mg/kg/injection, schedule: Q01DX009 (ip), vehicle: other 107 % of control | dose: 15.0 mg/kg/injection, schedule: Q01DX009 (oral), vehicle: other 115 % of control | dose: 15.0 mg/kg/injection, schedule: Q01DX009 (sc), vehicle: other 103 % of control | dose: 18.5 mg/kg/injection, schedule: Q01DX Z (ip), vehicle: carboxymethylcellulose (CMC) 108 % of control | dose: 18.5 mg/kg/injection, schedule: Q01DX Z (oral), vehicle: carboxymethylcellulose (CMC) 110 % of control | dose: 30.0 mg/kg/injection, schedule: Q01DX005 (ip), vehicle: other 116 % of control | dose: 30.0 mg/kg/injection, schedule: Q01DX009 (ip), vehicle: other 117 % of control | dose: 30.0 mg/kg/injection, schedule: Q01DX009 (oral), vehicle: other 115 % of control | dose: 30.0 mg/kg/injection, schedule: Q01DX009 (sc), vehicle: other 119 % of control | dose: 30.0 mg/kg/injection, schedule: Q## X024 (ip), vehicle: other 102 % of control | dose: 31.3 mg/kg/injection, schedule: Q01DX009 (ip), vehicle: saline 100 % of control and 104 % of control | dose: 31.3 mg/kg/injection, schedule: Q01DX010 (ip), vehicle: saline 92 % of control and 95 % of control | dose: 37.0 mg/kg/injection, schedule: Q01DX Z (ip), vehicle: carboxymethylcellulose (CMC) 112 % of control | dose: 37.0 mg/kg/injection, schedule: Q01DX Z (oral), vehicle: carboxymethylcellulose (CMC) 120 % of control | dose: 37.5 mg/kg/injection, schedule: Q## X003 (ip), vehicle: other 100 % of control | dose: 60.0 mg/kg/injection, schedule: Q01DX005 (ip), vehicle: other 123 % of control | dose: 60.0 mg/kg/injection, schedule: Q## X008 (ip), vehicle: other 107 % of control | dose: 60.0 mg/kg/injection, schedule: Q## X016 (ip), vehicle: other 109 % of control | dose: 60.0 mg/kg/injection, schedule: Q## X024 (ip), vehicle: other 114 % of control | dose: 62.5 mg/kg/injection, schedule: Q01DX009 (ip), vehicle: saline 106 % of control and 112 % of control | dose: 62.5 mg/kg/injection, schedule: Q01DX010 (ip), vehicle: saline 107 % of control and 108 % of control | dose: 75.0 mg/kg/injection, schedule: Q01DX001 (ip), vehicle: other 102 % of control | dose: 75.0 mg/kg/injection, schedule: Q01DX001 (sc), vehicle: other 113 % of control | dose: 75.0 mg/kg/injection, schedule: Q## X002 (ip), vehicle: other 98 % of control | dose: 75.0 mg/kg/injection, schedule: Q## X003 (ip), vehicle: other 100 % of control | dose: 120.0 mg/kg/injection, schedule: Q## X008 (ip), vehicle: other 117 % of control | dose: 125.0 mg/kg/injection, schedule: Q01DX010 (ip), vehicle: saline 122 % of control | dose: 150.0 mg/kg/injection, schedule: Q01DX001 (ip), vehicle: other 108 % of control | dose: 150.0 mg/kg/injection, schedule: Q01DX001 (oral), vehicle: other 117 % of control | dose: 150.0 mg/kg/injection, schedule: Q01DX001 (sc), vehicle: other 117 % of control | dose: 150.0 mg/kg/injection, schedule: Q## X002 (ip), vehicle: other 101 % of control | dose: 250.0 mg/kg/injection, schedule: Q01DX009 (ip), vehicle: saline 110 % of control and 124 % of control | dose: 300.0 mg/kg/injection, schedule: Q01DX001 (oral), vehicle: other 119 % of control | dose: 600.0 mg/kg/injection, schedule: Q01DX001 (oral), vehicle: other 123 % of control | dose: 600.0 mg/kg/injection, schedule: Q01DX001 (sc), vehicle: other 121 % of control

Oc1ccc(Br)cc1/C=N/c1nc(-c2ccccc2)cs1.Oc1ccc(Br)cc1/C=N/c1nc(-c2ccccc2)cs1.[Zn]
inactive: dose: 100.0 mg/kg/injection, schedule: Q01DX001 (ip), vehicle: saline 86 % of control

O=C(CCN1CC1)OC1CCCCCC1
inactive: dose: 6.25 mg/kg/injection, schedule: Q01DX009 (ip), vehicle: Klucel (hydroxypropylcellulose) (HPC) 100 % of control | dose: 12.5 mg/kg/injection, schedule: Q01DX009 (ip), vehicle: Klucel (hydroxypropylcellulose) (HPC) 100 % of control | dose: 25.0 mg/kg/injection, schedule: Q01DX009 (ip), vehicle: Klucel (hydroxypropylcellulose) (HPC) 95 % of control | [1] 104 % of control | [2] 101 % of control

O=C(NO)c1ccccc1O
inactive: dose: 85.0 mg/kg/injection, schedule: Q03HX032 (ip), vehicle: other 97 % of control | [3] 104 % of control | dose: 100.0 mg/kg/injection, schedule: Q04DX002 (ip), vehicle: carboxymethylcellulose (CMC) 98 % of control and 108 % of control | dose: 100.0 mg/kg/injection, schedule: Q04DX003 (ip), vehicle: carboxymethylcellulose (CMC) 101 % of control and 118 % of control | dose: 130.0 mg/kg/injection, schedule: Q03HX032 (ip), vehicle: other 102 % of control | [4] 112 % of control | dose: 200.0 mg/kg/injection, schedule: Q01DX015 (ip), vehicle: other 105 % of control | dose: 200.0 mg/kg/injection, schedule: Q03HX032 (ip), vehicle: other 105 % of control | dose: 200.0 mg/kg/injection, schedule: Q04DX002 (ip), vehicle: carboxymethylcellulose (CMC) 98 % of control and 108 % of control | dose: 200.0 mg/kg/injection, schedule: Q04DX003 (ip), vehicle: carboxymethylcellulose (CMC) 99 % of control and 103 % of control | dose: 266.0 mg/kg/injection, schedule: Q01DX009 (ip), vehicle: saline 97 % of control | dose: 300.0 mg/kg/injection, schedule: Q01DX015 (ip), vehicle: other 93 % of control | dose: 300.0 mg/kg/injection, schedule: Q03HX032 (ip), vehicle: other 121 % of control | [5] 105 % of control | dose: 400.0 mg/kg/injection, schedule: Q01DX009 (ip), vehicle: saline 97 % of control | dose: 400.0 mg/kg/injection, schedule: Q04DX002 (ip), vehicle: carboxymethylcellulose (CMC) 96 % of control and 104 % of control | dose: 400.0 mg/kg/injection, schedule: Q04DX003 (ip), vehicle: carboxymethylcellulose (CMC) 105 % of control | dose: 450.0 mg/kg/injection, schedule: Q01DX015 (ip), vehicle: other 108 % of control | dose: 600.0 mg/kg/injection, schedule: Q01DX009 (ip), vehicle: saline 104 % of control | dose: 670.0 mg/kg/injection, schedule: Q01DX015 (ip), vehicle: other 86 % of control | dose: 900.0 mg/kg/injection, schedule: Q01DX009 (ip), vehicle: saline 104 % of control
active: dose: 450.0 mg/kg/injection, schedule: Q03HX032 (ip), vehicle: other 208 % of control

Cc1cc2c(cc1C)NC(=O)CC(=O)N2
inactive: [3] 96 % of control and 97 % of control | [1] 92 % of control | [4] 86 % of control | [2] 100 % of control | [5] 89 % of control | dose: 400.0 mg/kg/injection, schedule: Q04DX003 (ip), vehicle: Klucel (hydroxypropylcellulose) (HPC) 89 % of control

CC(C)(C)C(=O)OCn1cnc2c(=N)n(O)cnc21
inactive: dose: 50.0 mg/kg/injection, schedule: Q01DX009 (ip), vehicle: Klucel (hydroxypropylcellulose) (HPC) 103 % of control | [3] 100 % of control | [1] 97 % of control | [4] 101 % of control | [2] 108 % of control
